Where two headings read alike, the source gives them in different places.
What was measured:
[1] = test system: MK-801-treated mice; test: Novel object recognition (NOR) test, MK-801-induced deficits; format: in vivo; conditions: for Reversal of MK-801-induced disruptions in NOR test by combined administration: 7 days; for Effect of combined administration on MK-801-induced memory deficits in the NOR test: subeffective doses
Method: Drugs were administered on two different schedules: (1) acute administration of compounds 45 min (WAY100635—5-HT1A antagonist) or 30 min (VU0357017, VU152100, VU0238429, and F15599) before MK-801 (also administered once 30 min before the test in Y-maze or T1 in NOR test); and (2) prolonged administration (once per day for 7 consecutive days) of the compounds and MK-801 with the last administration 24 h before the test (NOR test) or at the day of the test (Y-maze). […] Schedules of administration are presented graphically in Figure 2. The subeffective doses of the compounds for acute administration in the NOR test were chosen based on our previous research (see: [22, 23]) while dose-dependent studies of the activity of the compounds in reversing disruptions in the Y-maze or after prolonged administration along with MK-801 were performed within this study. Different vehicles were used throughout the study: (1) 0.9% NaCl and (2) 10% Tween 80. Vehicles were administered to all animals (e.g., control mice and MK-801-treated mice) on the same schedule as drugs were administered to the appropriate drug-treated groups of mice. Neither solvent exerted effects on animal behavior.
Male Albino Swiss mice (Charles River, Sulzfeld, Germany) weighing 20–25 g at the beginning of the experiments were used in the studies. The animals were housed in a room with a 12:12 h light-dark cycle at a temperature of 22 ± 1 °C with food and water available ad libitum. The experimental groups consisted of 8–10 animals. All drugs were administered intraperitoneally (i.p.) at a volume of 10 mL/kg. The behavioral experiments were performed by an observer who was blinded to the treatment. The procedures were conducted in accordance with the European Communities Council Directive of 22 September 2010 (2010/63/EU) and Polish legislation acts concerning animal experimentation and were approved by the II Local Ethics Committee by the Maj Institute of Pharmacology, Polish Academy of Sciences in Krakow (15/2020, 240/2020).
In acute experiments, the tested compounds (alone or in combination) were administered 30 min before MK-801 (0.3 mg/kg), which was administered 30 min before the test or training trial (T1) in the NOR test. In chronic experiments, the tested compounds (alone or in combination) and MK-801 were administered for seven days. Behavioral tests were performed on the eighth day.
The NOR test was performed as described previously. Briefly, the habituation, training and test trial were carried out in a dark room in a black, plastic rectangular arena illuminated with a 355 lux bulb. During the habituation trial, the animals were allowed to explore the arena in the absence of objects (10 min/day for 2 days). The next day, the training (T1) and test (T2) trials were performed. Throughout T1, mice were allowed to freely explore two identical objects (5 min), one of which was subsequently replaced by a novel object in T2 (1 h later, 5 min of exploration). Time spent exploring (i.e., sniffing or touching) the familiar (Tfamiliar) or novel object (Tnovel) was measured by a trained observer, and then the recognition index was calculated for each mouse [(Tnovel − Tfamiliar)/(Tfamiliar + Tnovel)] × 100.

[2] = Pharmacokinetic analysis of drug-drug interactions (plasma, FC concentration, FC penetration); format: in vivo, mice; conditions: for Kp at 30 min: frontal cortex/plasma
Method: The experiment was performed using the methods described by Bridges et al. and in our previous studies.
The pharmacokinetic analysis was performed in the blood and prefrontal cortex. […] Plasma and FC samples were stored at −80 °C until analysis.
The investigated compounds were administered alone at the top dose (F15599—0.1 mg/kg, VU0357017—5 mg/kg, VU0152100—1 mg/kg, and VU0238429—5 mg/kg) and in combinations of muscarinic ligands at subeffective doses with F15599 at subeffective dose (F15599 + VU0357017 0.05 and 0.15 mg/kg, F15599 + VU0152100 0.05 and 0.05 mg/kg, F15599 + VU0238429 0.05 and 1 mg/kg). The FC and blood were collected on the eighth day, 30 min after administration. All mice were parallelly treated with MK-801 (0.3 mg/kg) for seven consecutive days.
On the day of analysis, frozen whole mouse brain tissues were weighed and homogenized in 1:2 (w/v) volumes of ice-cold acetonitrile containing 0.1% FA and the internal standard mix. Samples were homogenized using a Metal Bead Lysing Matrix, vortexed for 1 min, shaken for 20 min at 4 °C on Thermomixer C, and centrifuged at 14,000× g rpm for 20 min at 4 °C. Finally, 50 µL of supernatant were diluted with 0.1% FA in water (1:1, v/v) and analyzed using HPLC/MS/MS.
The sample extraction of plasma (20 μL) was performed after spiking with the internal standard mix using the protein precipitation method and three volumes of ice-cold acetonitrile containing 0.1% formic acid. The extract was vortexed, incubated on ice for 20 min and centrifuged at 14,000× g rpm for 20 min at 4 °C. The supernatant was diluted with 0.1% FA in water (1:1, v/v) and analyzed by means of HPLC/MS/MS using a QTRAP 4500 (AB Sciex) mass spectrometer in positive ion mode in Multiple Reaction Monitoring (MRM screening) coupled with UHPLC (NEXERA XR, Shimadzu). Chromatographic separation was achieved on a Synergi 4 µm Fusion-RP 80 A 50 × 2 mm (Phenomenex) column at a flow rate of 0.2 mL/min. The gradient program was as follows: 20% B (0.3 min), 20–100% B (1.7 min), 100% B (3 min), 100–20% B (0.1 min), 20% B (2 min), solvent A (95:5:0.1% formic acid in water:methanol) and solvent B (methanol containing 0.1% formic acid). The column temperature was set to 40 °C. Analyst software was used to control the instrument and collect data. The ion transfer tube temperature was 300 °C. The spray voltage, collision energy, declastering potential, and gas parameters were optimized to achieve the maximal response using the test compounds. Selected reaction monitoring was carried out using the transition parameters. Calibration curves were constructed, and a linear response was obtained in the range of 0.25–500 ng/mL (VU357017, VU0152100, and F15599) and 1.25–2500 ng/mL (VU0238429) by spiking known amounts of each compound in blank brain homogenates and plasma. For VU0357017 and F15599 IS VU0152100 was used as internal standard. Sample concentration of internal standard was 100 ng/mL for IS VU0238429 and 50 ng/mL for IS VU0152100.
Brain penetration was calculated as FC/plasma ratio × 100%.

[3] = F15599 0.05 mg/kg with VU0238429 1 mg/kg (subeffective doses)
[4] = Albino Swiss, mouse, in vivo, 30 min

In the case of `Cc1cnc(CNCC2(F)CCN(C(=O)c3ccc(F)c(Cl)c3)CC2)nc1` [F15599], the “Reversal of MK-801-induced deficits in the NOR test (recognition index)” value (“Reversal … (recognition index)” below) ([1]; 7 days with MK-801, 0.025 mg/kg i.p.) is reported as “ineffective”, the “Reversal … (recognition index)” value ([1]; 7 days with MK-801, 0.1 mg/kg i.p.) is reported as “reversed” and the “Reversal of MK-801-induced disruptions in NOR test by combined administration” value (from here on “Reversal of MK-801-induced disruptions”) ([1]; F15599 0.05 mg/kg with VU0152100 0.05 mg/kg (subeffective doses)) is reported as “reversed”. The “Reversal of MK-801-induced disruptions” value [1, 3] was “reversed”, the “Reversal of MK-801-induced disruptions” value ([1]; F15599 0.05 mg/kg with VU0357017 0.15 mg/kg (subeffective doses)) was “reversed” and the “Reversal … (recognition index)” value ([1]; acute, 0.05 mg/kg i.p., 30 min before MK-801) was “ineffective”. The “Reversal … (recognition index)” value ([1]; acute, 0.1 mg/kg i.p., 30 min before MK-801 (0.3 mg/kg)) was “reversed”, the “Reversal … (recognition index)” value ([1]; acute, 0.5 mg/kg i.p., 30 min before MK-801) was “reversed” and the “Effect of combined administration on MK-801-induced memory deficits in the NOR test” value (“Effect of combined administration” for short) ([1]; acute, F15599 with VU0152100) was “no effect”. For the same compound, the “Effect of combined administration” value ([1]; acute, F15599 with VU0238429) was “no effect”, the “Effect of combined administration” value ([1]; acute, F15599 with VU0357017) was “no effect” and the PFC ([2]; Albino Swiss, mouse, in vivo, 0.1 mg/kg, 30 min) was 21.57 ± 1.26 ng/mL. The concentration at 30 min ([2]; Albino Swiss, mouse, in vivo, 0.1 mg/kg, PFC) was 18.3 ± 0.84 ng/mL, the “Decrease of FC penetration after prolonged administration compared to acute” value [2, 4] was “ca. 50%” and the “Decrease of FC penetration of F15599 when administered simultaneously” value [2, 4] was ~ 50%. The “Effect of chronic administration of subeffective doses (combinations) on brain penetration” value ([2]; mouse, in vivo) was “increased”.
For `COc1ccc(CN2C(=O)C(=O)c3cc(OC(F)(F)F)ccc32)cc1` [VU0238429], the “Reversal … (recognition index)” value ([1]; 7 days with MK-801, 0.5 mg/kg) was “ineffective”, the “Reversal … (recognition index)” value ([1]; 7 days with MK-801, 1 mg/kg) was “ineffective” and the “Reversal … (recognition index)” value ([1]; 7 days with MK-801, 5 mg/kg) was “active”. For the same compound, the “Reversal of MK-801-induced disruptions” value [1, 3] was “reversed”, the “Effect of top dose on MK-801-induced deficits in the NOR test” value ([1]; acute, 5 mg/kg i.p., alone) was “pro-cognitive effect” and the “Effect of combined administration” value ([1]; acute, F15599 with VU0238429) was “no effect”. For the same compound, the Kp at 30 min ([2]; Albino Swiss, mouse, intraperitoneal, acute, combination F15599 0.05 mg/kg + VU0238429 1 mg/kg, read-out: PFC Penetration) was 0.36, the Kp at 30 min ([2]; Albino Swiss, mouse, intraperitoneal, acute, top doses alone (VU0357017 5, VU0152100 1, VU0238429 5, F15599 0.1 mg/kg), 30 min after administration, read-out: PFC Penetration (FC/plasma ratio x 100%)) was 0.53 and the Kp at 30 min ([2]; Albino Swiss, mouse, intraperitoneal, chronic (7 days with MK-801), combination F15599 0.05 mg/kg + VU0238429 1 mg/kg, read-out: PFC Penetration) was 0.15. For the same compound, the Kp at 30 min ([2]; Albino Swiss, mouse, intraperitoneal, chronic (7 days with MK-801), top doses alone (VU0357017 5, VU0152100 1, VU0238429 5, F15599 0.1 mg/kg), read-out: PFC Penetration (FC/plasma ratio x 100%)) was 0.21, the concentration at 30 min ([2]; Albino Swiss, mouse, plasma, intraperitoneal, acute, combination F15599 0.05 mg/kg + VU0238429 1 mg/kg, read-out: Plasma) was 120 ± 13.9 ng/mL and the concentration at 30 min ([2]; Albino Swiss, mouse, plasma, intraperitoneal, acute, top doses alone (VU0357017 5, VU0152100 1, VU0238429 5, F15599 0.1 mg/kg), 30 min after administration, read-out: Plasma) was 486 ± 178 ng/mL. The concentration at 30 min ([2]; Albino Swiss, mouse, plasma, intraperitoneal, chronic (7 days with MK-801), combination F15599 0.05 mg/kg + VU0238429 1 mg/kg, read-out: Plasma) was 35 ± 8.89 ng/mL, the concentration at 30 min ([2]; Albino Swiss, mouse, plasma, intraperitoneal, chronic (7 days with MK-801), top doses alone (VU0357017 5, VU0152100 1, VU0238429 5, F15599 0.1 mg/kg), read-out: Plasma) was 844 ± 235 ng/mL and the concentration at 30 min ([2]; Albino Swiss, mouse, prefrontal cortex (FC), intraperitoneal, acute, combination F15599 0.05 mg/kg + VU0238429 1 mg/kg, read-out: PFC) was 43.1 ± 1.81 ng/mL. It also gave a concentration at 30 min ([2]; Albino Swiss, mouse, prefrontal cortex (FC), intraperitoneal, acute, top doses alone (VU0357017 5, VU0152100 1, VU0238429 5, F15599 0.1 mg/kg), 30 min after administration, read-out: PFC) of 256 ± 32.1 ng/mL, a concentration at 30 min ([2]; Albino Swiss, mouse, prefrontal cortex (FC), intraperitoneal, chronic (7 days with MK-801), combination F15599 0.05 mg/kg + VU0238429 1 mg/kg, read-out: PFC) of 5.13 ± 0.83 ng/mL and a concentration at 30 min ([2]; Albino Swiss, mouse, prefrontal cortex (FC), intraperitoneal, chronic (7 days with MK-801), top doses alone (VU0357017 5, VU0152100 1, VU0238429 5, F15599 0.1 mg/kg), read-out: PFC) of 179 ± 25 ng/mL. For the same compound, the “Fold higher penetration to the FC than to whole brain” value ([2]; FC penetration versus earlier whole-brain data) was “more than 6 times”, the “PFC Penetration (FC/plasma ratio x 100%)” value ([2]; acute, top doses alone (VU0357017 5, VU0152100 1, VU0238429 5, F15599 0.1 mg/kg), 30 min after administration) was 53% and the “PFC Penetration (FC/plasma ratio x 100%)” value ([2]; chronic (7 days with MK-801), top doses alone (VU0357017 5, VU0152100 1, VU0238429 5, F15599 0.1 mg/kg)) was 21%. For the same compound, the “Decrease of FC penetration after acute concomitant administration with F15599” value ([2]; subeffective doses, compared to top dose alone) was ~ 40% and the “Decrease of FC penetration after prolonged administration compared to acute” value ([2]; top doses alone, animals treated with MK-801) was “ca. 50%”.
